Experimental findings from patent US20120270237A9, “METHODS FOR THE IDENTIFICATION OF KINASE INTERACTING MOLECULES AND FOR THE PURIFICATION OF KINASE PROTEINS” (Cellzone AG, priority 2009, published 2012) are described below.

The term inhibition denotes how much of the control response was suppressed.

Common to all, as to assay: Kinobeads competition binding, HeLa Placenta lysate mix
Set-up in all cases: capturing and identification of kinases from mixed HeLa placenta lysates; endogenous in cells; host or cells: HeLa cells mixed with placenta tissue lysate
Holding throughout (settings): 10 μM free compound

Assay [1] has as its target MLK4 (Homo sapiens, UniProt Q5TCX8). As to the method:
(§1) To one aliquot of cell lysate 10 μM of the free compound (FIG. 3, CZC31326) was added and allowed to bind to proteins in the lysate. Then the affinity matrix with the immobilized compound was added to capture proteins that were not interacting with the previously added free compound. Beads were separated from the lysate and bead bound proteins were eluted in SDS sample buffer and subsequently separated by SDS-Polyacrylamide gel electrophoresis (FIG. 10). Suitable gel bands were cut out and subjected to in-gel proteolytic digestion with trypsin. The second lysate aliquot was processed identically, however no free compound was added (DMSO solvent control). Peptides originating from samples 1 and 2 were labeled with iTRAQ reagents (iTRAQ 114 and iTRAQ 117) and the combined samples were analyzed with a nano-flow liquid chromatography system coupled online to a tandem mass spectrometer (LC-MS/MS) experiment followed by iTRAQ reporter ion quantification in the MS/MS spectra as described in Example 2.

Assay [2] deals with T1, MST1 (Homo sapiens, UniProt Q13043).
T1 sequence (Q13043 1-487): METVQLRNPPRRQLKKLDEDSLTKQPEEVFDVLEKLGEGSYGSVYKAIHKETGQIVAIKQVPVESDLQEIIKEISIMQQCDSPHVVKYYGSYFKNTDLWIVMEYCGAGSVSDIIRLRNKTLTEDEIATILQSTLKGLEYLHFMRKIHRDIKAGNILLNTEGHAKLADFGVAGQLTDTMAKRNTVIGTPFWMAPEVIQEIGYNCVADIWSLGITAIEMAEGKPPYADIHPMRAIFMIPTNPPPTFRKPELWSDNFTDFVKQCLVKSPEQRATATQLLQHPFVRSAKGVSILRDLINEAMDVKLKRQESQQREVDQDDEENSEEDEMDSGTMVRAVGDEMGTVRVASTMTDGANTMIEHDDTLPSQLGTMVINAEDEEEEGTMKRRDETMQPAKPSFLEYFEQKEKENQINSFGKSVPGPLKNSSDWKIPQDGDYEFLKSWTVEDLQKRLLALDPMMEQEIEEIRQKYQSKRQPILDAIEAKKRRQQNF
The method, then: as §1

The target in assay [3] is T2, PHKg2 (Homo sapiens, UniProt P15735).
T2 sequence (P15735 1-406): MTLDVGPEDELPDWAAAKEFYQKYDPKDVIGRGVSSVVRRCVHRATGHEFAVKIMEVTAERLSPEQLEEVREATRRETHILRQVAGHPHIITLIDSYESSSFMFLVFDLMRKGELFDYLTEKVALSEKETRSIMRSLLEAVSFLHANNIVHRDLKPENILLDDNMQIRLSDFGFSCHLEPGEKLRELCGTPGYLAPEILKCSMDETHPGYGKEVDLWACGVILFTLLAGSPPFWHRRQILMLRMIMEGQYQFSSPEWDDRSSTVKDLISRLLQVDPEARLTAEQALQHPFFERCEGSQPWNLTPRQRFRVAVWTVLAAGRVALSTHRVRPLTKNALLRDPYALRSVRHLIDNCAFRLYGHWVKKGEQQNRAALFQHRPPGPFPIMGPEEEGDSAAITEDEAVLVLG
As to the method:
as §1

The target in assay [4] is PKCa (Homo sapiens, UniProt P17252). As to the method: as §1
Assay [5] deals with PKN2 (Homo sapiens, UniProt Q16513). As to the method:
as §1

In assay [6] the target is PLK1 (Homo sapiens, UniProt P53350). As to the method: as §1
PLK1, sequence (P53350 whole entry): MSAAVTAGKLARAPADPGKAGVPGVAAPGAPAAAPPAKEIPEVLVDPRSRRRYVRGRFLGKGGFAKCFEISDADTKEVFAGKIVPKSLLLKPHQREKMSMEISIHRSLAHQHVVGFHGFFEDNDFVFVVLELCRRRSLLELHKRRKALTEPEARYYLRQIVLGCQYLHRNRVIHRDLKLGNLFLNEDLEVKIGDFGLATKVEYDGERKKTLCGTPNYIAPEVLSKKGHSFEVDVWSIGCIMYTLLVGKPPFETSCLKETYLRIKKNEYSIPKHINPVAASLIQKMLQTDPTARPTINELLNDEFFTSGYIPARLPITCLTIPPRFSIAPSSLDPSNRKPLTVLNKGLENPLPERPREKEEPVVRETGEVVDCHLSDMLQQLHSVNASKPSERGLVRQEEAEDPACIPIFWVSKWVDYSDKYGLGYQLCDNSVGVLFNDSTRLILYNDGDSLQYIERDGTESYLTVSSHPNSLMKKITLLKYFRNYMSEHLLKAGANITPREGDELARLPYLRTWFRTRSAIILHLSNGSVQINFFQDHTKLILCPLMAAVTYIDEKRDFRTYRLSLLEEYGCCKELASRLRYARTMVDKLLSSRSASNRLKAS
Assay [7] has as its target PYK2 (Homo sapiens, UniProt Q14289). The method, then:
as §1

For assay [8], the target named is RSK2 (Homo sapiens, UniProt P51812). As to the method:
as §1

Assay [9] addresses SLK (Homo sapiens, UniProt Q9H2G2). The method, then: as §1
Assay [10] addresses SYK (Homo sapiens, UniProt P43405). The method, then: as §1

PYK2, sequence (Q14289 whole entry): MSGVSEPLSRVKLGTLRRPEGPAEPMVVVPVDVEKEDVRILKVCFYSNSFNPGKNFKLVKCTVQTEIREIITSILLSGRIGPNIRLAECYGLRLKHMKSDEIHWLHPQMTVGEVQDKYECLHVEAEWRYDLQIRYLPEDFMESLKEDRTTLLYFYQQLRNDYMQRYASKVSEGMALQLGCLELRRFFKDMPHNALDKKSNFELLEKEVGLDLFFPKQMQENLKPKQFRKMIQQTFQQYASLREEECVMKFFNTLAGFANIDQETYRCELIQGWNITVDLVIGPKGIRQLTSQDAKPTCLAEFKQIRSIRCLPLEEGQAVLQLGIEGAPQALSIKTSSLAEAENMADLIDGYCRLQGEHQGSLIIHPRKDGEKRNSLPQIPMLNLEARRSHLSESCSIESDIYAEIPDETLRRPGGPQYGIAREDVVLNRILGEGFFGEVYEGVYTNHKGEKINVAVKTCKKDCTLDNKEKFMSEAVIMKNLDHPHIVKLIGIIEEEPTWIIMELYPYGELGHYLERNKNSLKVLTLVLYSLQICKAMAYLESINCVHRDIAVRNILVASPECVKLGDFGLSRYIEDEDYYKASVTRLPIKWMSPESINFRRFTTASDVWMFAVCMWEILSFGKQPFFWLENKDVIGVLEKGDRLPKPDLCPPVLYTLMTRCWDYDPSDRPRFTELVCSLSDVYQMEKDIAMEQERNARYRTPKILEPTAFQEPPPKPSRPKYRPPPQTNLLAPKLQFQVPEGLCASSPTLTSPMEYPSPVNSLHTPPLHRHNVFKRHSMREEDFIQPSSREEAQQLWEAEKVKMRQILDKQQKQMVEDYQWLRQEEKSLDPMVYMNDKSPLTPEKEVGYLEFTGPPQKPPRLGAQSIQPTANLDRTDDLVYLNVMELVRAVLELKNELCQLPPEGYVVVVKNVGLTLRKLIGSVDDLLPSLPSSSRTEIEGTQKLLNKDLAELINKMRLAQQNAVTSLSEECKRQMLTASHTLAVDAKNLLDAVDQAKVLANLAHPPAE
MLK4, sequence (Q5TCX8 whole entry): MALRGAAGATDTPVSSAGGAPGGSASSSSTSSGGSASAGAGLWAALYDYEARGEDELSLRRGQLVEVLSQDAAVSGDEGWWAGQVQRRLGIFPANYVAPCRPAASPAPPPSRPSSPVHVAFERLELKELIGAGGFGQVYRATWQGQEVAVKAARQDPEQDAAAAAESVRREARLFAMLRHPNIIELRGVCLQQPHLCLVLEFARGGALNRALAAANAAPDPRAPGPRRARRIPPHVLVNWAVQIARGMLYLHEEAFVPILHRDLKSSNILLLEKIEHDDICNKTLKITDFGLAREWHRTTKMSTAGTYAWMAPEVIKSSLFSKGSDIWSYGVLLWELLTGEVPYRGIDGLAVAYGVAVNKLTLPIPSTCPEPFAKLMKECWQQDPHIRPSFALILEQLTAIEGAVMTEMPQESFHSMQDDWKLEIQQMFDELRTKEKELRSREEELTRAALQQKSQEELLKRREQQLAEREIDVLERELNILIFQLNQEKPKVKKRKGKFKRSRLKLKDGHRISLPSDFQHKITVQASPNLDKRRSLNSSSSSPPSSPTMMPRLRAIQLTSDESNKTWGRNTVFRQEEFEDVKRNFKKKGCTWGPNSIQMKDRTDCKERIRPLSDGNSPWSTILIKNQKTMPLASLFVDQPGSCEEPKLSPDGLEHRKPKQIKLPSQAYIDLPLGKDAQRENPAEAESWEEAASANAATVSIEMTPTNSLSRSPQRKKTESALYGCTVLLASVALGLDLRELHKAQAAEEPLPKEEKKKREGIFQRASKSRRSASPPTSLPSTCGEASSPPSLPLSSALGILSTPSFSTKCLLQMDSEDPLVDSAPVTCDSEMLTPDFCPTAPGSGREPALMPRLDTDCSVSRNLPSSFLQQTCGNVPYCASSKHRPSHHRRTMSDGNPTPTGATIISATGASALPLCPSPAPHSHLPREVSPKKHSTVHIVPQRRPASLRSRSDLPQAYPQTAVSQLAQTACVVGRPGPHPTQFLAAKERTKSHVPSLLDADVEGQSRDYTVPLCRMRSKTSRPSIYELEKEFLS
RSK2, sequence (P51812 whole entry): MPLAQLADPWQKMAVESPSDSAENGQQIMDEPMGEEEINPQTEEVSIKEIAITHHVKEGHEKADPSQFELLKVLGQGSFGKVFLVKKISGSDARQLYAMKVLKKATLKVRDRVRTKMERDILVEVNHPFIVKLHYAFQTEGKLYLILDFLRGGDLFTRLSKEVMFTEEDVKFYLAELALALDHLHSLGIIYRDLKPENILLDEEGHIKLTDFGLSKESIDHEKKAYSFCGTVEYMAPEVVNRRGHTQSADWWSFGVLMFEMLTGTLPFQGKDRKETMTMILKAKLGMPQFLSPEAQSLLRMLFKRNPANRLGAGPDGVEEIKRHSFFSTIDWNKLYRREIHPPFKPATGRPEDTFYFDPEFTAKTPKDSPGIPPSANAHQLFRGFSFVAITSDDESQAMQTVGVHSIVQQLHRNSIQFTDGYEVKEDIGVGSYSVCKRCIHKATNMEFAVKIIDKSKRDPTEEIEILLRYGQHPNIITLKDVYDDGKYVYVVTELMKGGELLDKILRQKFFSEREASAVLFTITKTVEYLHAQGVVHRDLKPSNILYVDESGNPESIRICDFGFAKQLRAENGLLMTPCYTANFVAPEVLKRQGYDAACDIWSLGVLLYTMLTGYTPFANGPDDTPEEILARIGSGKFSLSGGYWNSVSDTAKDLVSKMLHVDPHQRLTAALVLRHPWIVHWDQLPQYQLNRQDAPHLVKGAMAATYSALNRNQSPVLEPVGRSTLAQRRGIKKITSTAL
PKN2, sequence (Q16513 whole entry): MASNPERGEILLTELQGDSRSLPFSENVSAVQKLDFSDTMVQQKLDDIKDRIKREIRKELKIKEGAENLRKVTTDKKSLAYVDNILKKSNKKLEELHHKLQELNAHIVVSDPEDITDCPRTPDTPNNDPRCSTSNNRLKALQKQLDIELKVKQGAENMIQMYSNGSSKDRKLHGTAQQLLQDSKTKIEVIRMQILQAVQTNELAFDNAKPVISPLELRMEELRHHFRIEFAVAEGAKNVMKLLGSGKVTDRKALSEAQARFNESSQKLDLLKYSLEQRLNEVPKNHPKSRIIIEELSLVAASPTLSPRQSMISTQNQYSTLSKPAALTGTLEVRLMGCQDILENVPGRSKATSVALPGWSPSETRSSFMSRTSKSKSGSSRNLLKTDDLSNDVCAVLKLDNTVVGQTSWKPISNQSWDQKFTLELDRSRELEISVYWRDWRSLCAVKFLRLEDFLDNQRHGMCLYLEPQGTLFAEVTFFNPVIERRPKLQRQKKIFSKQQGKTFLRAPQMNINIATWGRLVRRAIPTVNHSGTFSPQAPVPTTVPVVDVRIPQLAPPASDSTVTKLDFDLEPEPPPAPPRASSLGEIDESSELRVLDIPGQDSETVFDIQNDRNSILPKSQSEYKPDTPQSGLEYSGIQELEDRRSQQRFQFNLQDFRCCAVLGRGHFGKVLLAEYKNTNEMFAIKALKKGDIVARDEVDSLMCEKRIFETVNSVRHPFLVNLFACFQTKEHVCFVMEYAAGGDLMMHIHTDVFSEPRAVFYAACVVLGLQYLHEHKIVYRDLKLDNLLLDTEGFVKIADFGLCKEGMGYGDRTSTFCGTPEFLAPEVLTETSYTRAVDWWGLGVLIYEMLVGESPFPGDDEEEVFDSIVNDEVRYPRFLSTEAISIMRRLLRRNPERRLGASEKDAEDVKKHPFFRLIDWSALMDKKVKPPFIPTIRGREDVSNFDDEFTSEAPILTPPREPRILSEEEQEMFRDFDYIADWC

`CS(=O)(=O)Nc1ccccc1Nc1nc(Nc2cccc(OCCN)c2)ncc1Cl` [CZC31326, N-(2-(2-(3-(2-aminoethoxy)phenylamino)-5-chloropyrimidin-4-ylamino)phenyl)methanesulfonamide]: the inhibition at 10 µM in [1] turned out to be 88.9%; in assay [3] it was 89.9%; in [4], 94.9%; in [5], 94%; in assay [6] it was 94.7%; in assay [7], 92.7%. For the same compound, the values for the inhibition at 10 µM in assay [8] and in [9] were 96% and 93.2%, respectively. The values for the Competition % in assay [2] and in assay [10] were 94.6% and 93.4%, respectively.
